Article PMC7413254 (Nature Communications, 2020)
Where “and” joins values, the source holds several entries; their conditions need not be identical. Equal values may be shown once.

Assays:
[1] = target: T1, PfNT1 (Plasmodium falciparum, UniProt Q8IDM6); assay: cell-based; assay type: cell-based
T1 construct: expressed in transfected cells; host or cells: Xenopus laevis oocytes (stage V-VI), cRNA-injected
How it was run: (§1)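 Oocytes (ten per treatment, ≥4 independent frogs/days) were preloaded by injecting VF-6 in 25 nL ND96 at pH 5.0, 5.5, 6.0 or 7.0, or Na^+-free choline buffer, then uptake run 1.5 h, 27.5 °C, ND96 pH 5.5 by default. Internal concentrations assumed ~400 nL oocyte volume.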

[2] = target: T2, PfCRT^3D7 (Plasmodium falciparum, UniProt Q8IBZ9); assay: cell-based; assay type: cell-based
How it was run: as §1

[3] = target: T2, PfCRT^3D7; assay: cell-based; assay type: cell-based; remark: listed apart in the source
Text: (§2) The orientation of PfCRT in the parasite’s DV membrane, and also in the oocyte plasma membrane, is such that its N- and C-termini extend into the cytosol. The oocytes were suspended in a reaction buffer adjusted to pH 5.5 to mimic the pH of the DV lumen[1],[2]. In this scenario, the transport of a substrate via PfCRT from the acidic extracellular solution into the oocyte cytosol[15] is analogous to the parasite’s PfCRT-mediated efflux of a substrate from the acidic DV and into the cytosol. Unless specified otherwise, this is the direction in which substrate transport was measured in the oocyte assays.
(§3) Unless specified otherwise, the transport assays were conducted over 1.5 h at 27.5 °C and the reaction buffer was ND96 (96 mM NaCl, 2 mM KCl, 1 mM MgCl2, 1.8 mM CaCl2, 10 mM MES and 10 mM Tris-base) at pH 5.5.
(§4) Ten oocytes were washed twice with the relevant ND96 buffer. […] The assay was terminated by removing the reaction buffer and washing the oocytes with ice-cold ND96 buffer. The oocytes were lysed in 10% (w/v) sodium dodecyl sulfate (SDS) and the radioactivity accumulated within each oocyte was measured with a MicroBeta^2 microplate liquid scintillation analyser (PerkinElmer).
(§5) At least four independent experiments were performed (on different days and using oocytes from different frogs), and within each experiment measurements were made from ten oocytes per treatment.

[4] = tested on: non-expressing oocytes; assay: cells; assay type: cell-based, Xenopus laevis
Text: as §2, §3, §4, §5

[5] = tested on: non-expressing oocytes; assay type: cell-based, Xenopus laevis
How it was run: as §1

T1 sequence (Q8IDM6 whole entry): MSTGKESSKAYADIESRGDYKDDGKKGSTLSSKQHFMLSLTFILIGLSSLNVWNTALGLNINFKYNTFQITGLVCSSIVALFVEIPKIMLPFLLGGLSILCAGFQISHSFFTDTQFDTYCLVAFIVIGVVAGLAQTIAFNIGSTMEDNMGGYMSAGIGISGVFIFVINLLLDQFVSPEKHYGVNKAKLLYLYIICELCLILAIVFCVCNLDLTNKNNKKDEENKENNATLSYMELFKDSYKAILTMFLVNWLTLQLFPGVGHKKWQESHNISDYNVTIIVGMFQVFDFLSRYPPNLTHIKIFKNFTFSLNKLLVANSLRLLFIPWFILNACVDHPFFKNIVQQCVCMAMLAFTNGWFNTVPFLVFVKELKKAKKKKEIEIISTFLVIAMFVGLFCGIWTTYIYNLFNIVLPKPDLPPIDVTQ
T2 sequence (Q8IBZ9 59-398): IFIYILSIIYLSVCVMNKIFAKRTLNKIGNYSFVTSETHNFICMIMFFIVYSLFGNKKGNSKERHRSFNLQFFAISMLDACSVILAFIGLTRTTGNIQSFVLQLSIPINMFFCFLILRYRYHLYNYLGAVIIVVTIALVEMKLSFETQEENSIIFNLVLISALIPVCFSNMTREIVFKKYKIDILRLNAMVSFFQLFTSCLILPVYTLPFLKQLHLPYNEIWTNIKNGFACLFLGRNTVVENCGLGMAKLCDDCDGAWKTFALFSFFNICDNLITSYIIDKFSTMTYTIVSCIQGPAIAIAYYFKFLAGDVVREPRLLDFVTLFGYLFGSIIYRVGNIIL

**Q.** For Cc1ncc(C[n+]2csc(CCO)c2C)c(N)n1 [Thiamine (Vitamin B1)], which “Total [3H]CQ transport, trans-stimulation by injected solute” value (from here on “Total … by injected solute”) [1] is on record?
**A.** 3.7 ± 0.08 and 2.7 ± 0.06

**Q.** And the “Trans-stimulation data: total [3H]CQ transport, normalised to the oocyte type control” value [1]?
**A.** 101 ± 3.9

**Q.** What about the “PfCRT-mediated [3H]CQ transport, trans-stimulation by injected solute, PfCRT3D7” value [2] of the same molecule?
**A.** 0.1 ± 0.01

**Q.** What about the “Total … by injected solute” value [2] of the same molecule?
**A.** 3.0 ± 0.05 and 3.0 ± 0.03

**Q.** What about the “Trans-stimulation data: PfCRT-mediated [3H]CQ transport” value [2] of the same molecule?
**A.** 99 ± 2.9 and 98 ± 1.9

**Q.** And the “Trans-stimulation data: total [3H]CQ transport, normalised to the oocyte type control” value [2]?
**A.** 101 ± 3.5 and 100 ± 3.6

**Q.** What about the “Cis-inhibition data: total [3H]CQ transport, normalised to the oocyte type control” value [3] of the same molecule?
**A.** 99 ± 9.3 and 99 ± 3.7 and 99 ± 3.0

**Q.** And the “Total [3H]CQ transport, cis-inhibition by solute” value [3]?
**A.** 2.8 ± 0.03 and 2.7 ± 0.07 and 2.8 ± 0.05

**Q.** And the “Cis-inhibition data: total [3H]CQ transport, normalised to the oocyte type control” value [4]?
**A.** 99 ± 5.1 and 98 ± 5.2 and 100 ± 4.6

**Q.** And the “Total [3H]CQ transport, cis-inhibition by solute” value [4]?
**A.** 2.7 ± 0.05 and 4.2 ± 0.03 and 2.2 ± 0.06

**Q.** And the “Total … by injected solute” value [5]?
**A.** 2.9 ± 0.04 and 3.9 ± 0.05

**Q.** And the “Trans-stimulation data: total [3H]CQ transport, normalised to the oocyte type control” value [5]?
**A.** 100 ± 3.7 and 99 ± 4.8

**Q.** What does the source list for CC[N+](CC)(CC)CC [Tetraethyl ammonium]?
**A.** Total [3H]CQ transport, trans-stimulation by solute [1]: 3.2 ± 0.1 and 2.8 ± 0.02; Trans-stimulation data: total [3H]CQ transport with the solute injected [1]: 99 ± 3.5 and 100 ± 3.6; PfCRT-mediated [3H]CQ transport, trans-stimulation by injected solute, PfCRT3D7 [2]: 0.6 ± 0.02 and 0.7 ± 0.01; Total [3H]CQ transport, trans-stimulation by solute [2]: 3.6 ± 0.05 and 3.7 ± 0.05; Trans-stimulation data: PfCRT-mediated [3H]CQ transport [2]: 97 ± 2.2 and 99 ± 2.6; Trans-stimulation data: total [3H]CQ transport with the solute injected [2]: 99 ± 0.3 and 101 ± 3.7; Cis-inhibition data: total [3H]CQ transport in the presence of the solute [3]: 98 ± 5.7 and 101 ± 5.2 and 98 ± 5.2; Total [3H]CQ transport, cis-inhibition by solute [3]: 2.7 ± 0.06 and 3.2 ± 0.08 and 3.7 ± 0.02; Cis-inhibition data: total [3H]CQ transport in the presence of the solute [4]: 99 ± 4.8 and 101 ± 4.7 and 99 ± 3.6; Total [3H]CQ transport, cis-inhibition by solute [4]: 2.2 ± 0.03 and 3.3 ± 0.08 and 2.8 ± 0.03; Total [3H]CQ transport, trans-stimulation by solute [5]: 2.5 ± 0.04 and 3.0 ± 0.04; Trans-stimulation data: total [3H]CQ transport with the solute injected [5]: 99 ± 3.5 and 98 ± 5.7
